Like-named read-outs stand apart in the source and are kept apart here.
How the values were obtained:
Assay in all cases: Ambit kinase profiling, competition binding
[1] = target: T1, CSK (Homo sapiens, UniProt P41240); conditions: for % Competition: 10 µM
T1 construct: purchased Ambit Biosciences (KINOMEscan)
Experimental: (§1) Also included in the kinase profile are four isoforms of PKC (δ, ε, η, θ) and eight isoforms of CAMKs (CAMKIα, δ, γ; CAMKIIα, β, δ, γ; CAMK4).
(§2) The global kinase profiling experiment was performed by Ambit Biosciences.

[2] = target: T2, JNK1 (Homo sapiens, UniProt P45983); conditions: for % Competition: 10 µM
T2 construct: purchased Ambit Biosciences (KINOMEscan)
T2 sequence (P45983 whole entry): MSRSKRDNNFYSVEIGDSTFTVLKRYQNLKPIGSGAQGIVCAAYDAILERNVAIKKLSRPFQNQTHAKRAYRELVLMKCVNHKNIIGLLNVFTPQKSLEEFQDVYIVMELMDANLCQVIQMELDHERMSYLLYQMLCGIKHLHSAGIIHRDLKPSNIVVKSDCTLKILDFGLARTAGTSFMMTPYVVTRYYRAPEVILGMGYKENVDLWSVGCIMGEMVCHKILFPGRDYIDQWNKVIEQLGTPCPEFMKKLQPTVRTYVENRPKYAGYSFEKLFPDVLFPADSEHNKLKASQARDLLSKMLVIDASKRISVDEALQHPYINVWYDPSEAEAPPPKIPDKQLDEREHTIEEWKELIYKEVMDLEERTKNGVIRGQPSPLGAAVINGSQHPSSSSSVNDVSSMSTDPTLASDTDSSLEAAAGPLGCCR
Experimental: as §1, §2

[3] = target: T3, LATS1 (Homo sapiens, UniProt O95835)
T3 construct: purchased Ambit Biosciences (KINOMEscan)
T3 sequence (O95835 1-1130): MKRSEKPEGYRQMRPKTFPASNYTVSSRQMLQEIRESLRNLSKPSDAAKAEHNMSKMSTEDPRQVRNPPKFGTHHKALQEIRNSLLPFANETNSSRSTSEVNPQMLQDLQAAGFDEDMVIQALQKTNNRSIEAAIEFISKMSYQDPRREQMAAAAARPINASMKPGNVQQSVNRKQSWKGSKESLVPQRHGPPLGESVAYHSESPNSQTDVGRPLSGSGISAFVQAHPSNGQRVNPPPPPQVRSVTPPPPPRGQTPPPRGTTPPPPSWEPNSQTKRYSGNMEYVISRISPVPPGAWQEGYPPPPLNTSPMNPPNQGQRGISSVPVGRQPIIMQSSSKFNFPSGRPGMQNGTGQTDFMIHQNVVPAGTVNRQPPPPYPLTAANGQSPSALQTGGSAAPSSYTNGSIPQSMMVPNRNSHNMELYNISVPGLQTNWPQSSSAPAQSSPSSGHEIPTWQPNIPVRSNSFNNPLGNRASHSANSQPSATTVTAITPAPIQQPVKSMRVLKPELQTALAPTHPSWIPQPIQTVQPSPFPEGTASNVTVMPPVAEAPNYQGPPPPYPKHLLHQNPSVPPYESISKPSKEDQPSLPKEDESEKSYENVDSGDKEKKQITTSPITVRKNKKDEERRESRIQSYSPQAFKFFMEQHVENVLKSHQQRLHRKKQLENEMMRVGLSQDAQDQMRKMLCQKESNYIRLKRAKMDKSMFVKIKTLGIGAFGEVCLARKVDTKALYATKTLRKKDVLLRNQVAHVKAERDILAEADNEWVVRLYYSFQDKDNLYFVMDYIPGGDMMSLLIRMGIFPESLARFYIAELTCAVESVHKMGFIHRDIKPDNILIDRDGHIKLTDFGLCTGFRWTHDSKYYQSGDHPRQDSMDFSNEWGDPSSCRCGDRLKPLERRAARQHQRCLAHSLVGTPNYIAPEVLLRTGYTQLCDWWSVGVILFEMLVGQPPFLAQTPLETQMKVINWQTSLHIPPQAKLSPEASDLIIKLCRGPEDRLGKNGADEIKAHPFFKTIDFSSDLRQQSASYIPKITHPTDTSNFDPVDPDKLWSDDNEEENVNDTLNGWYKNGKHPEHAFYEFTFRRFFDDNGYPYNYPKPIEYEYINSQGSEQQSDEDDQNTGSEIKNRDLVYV
Experimental: as §1, §2

[4] = target: T4, PCTK3 (Homo sapiens, UniProt Q07002)
T4 construct: purchased Ambit Biosciences (KINOMEscan)
T4 sequence (Q07002 whole entry): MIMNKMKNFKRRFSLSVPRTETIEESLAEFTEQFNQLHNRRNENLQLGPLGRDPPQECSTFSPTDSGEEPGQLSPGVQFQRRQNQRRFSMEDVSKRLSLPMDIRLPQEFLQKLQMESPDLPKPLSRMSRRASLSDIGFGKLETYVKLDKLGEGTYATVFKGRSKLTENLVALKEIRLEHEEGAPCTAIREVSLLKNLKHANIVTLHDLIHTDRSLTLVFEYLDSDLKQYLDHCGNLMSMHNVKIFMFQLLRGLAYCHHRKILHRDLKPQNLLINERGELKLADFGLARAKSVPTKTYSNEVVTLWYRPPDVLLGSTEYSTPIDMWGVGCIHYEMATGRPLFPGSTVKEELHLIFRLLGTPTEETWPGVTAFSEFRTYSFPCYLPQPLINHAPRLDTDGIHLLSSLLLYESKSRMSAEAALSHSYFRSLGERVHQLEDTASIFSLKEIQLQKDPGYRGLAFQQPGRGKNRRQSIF
Experimental: as §1, §2

[5] = target: T5, PRKD2 (Homo sapiens, UniProt Q9BZL6)
T5 construct: purchased Ambit Biosciences (KINOMEscan)
T5 sequence (Q9BZL6 1-878): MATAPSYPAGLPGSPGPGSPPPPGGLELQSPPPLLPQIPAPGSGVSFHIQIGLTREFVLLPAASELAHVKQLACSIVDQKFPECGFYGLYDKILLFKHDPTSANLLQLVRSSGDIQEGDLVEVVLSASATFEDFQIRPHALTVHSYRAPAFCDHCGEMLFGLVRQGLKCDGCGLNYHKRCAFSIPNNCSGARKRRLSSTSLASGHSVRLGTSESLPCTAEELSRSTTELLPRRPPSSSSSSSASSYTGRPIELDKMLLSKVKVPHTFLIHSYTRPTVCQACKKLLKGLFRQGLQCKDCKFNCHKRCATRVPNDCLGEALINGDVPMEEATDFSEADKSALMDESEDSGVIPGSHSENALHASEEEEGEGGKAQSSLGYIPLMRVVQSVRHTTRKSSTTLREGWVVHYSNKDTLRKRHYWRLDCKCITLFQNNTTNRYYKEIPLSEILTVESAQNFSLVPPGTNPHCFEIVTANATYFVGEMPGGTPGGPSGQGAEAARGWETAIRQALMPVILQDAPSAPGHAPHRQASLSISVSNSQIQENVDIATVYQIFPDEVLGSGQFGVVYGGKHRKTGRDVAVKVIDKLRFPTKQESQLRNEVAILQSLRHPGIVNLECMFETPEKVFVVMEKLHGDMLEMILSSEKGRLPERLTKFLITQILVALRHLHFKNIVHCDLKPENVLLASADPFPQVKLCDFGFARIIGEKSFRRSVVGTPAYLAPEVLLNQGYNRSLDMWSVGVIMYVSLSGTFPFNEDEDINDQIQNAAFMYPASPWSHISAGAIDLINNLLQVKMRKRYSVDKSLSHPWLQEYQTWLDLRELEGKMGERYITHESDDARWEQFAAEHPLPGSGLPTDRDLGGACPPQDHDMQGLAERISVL
Experimental: as §1, §2

[6] = target: T6, SNARK (Homo sapiens, UniProt Q9H093); conditions: for % Competition: 10 µM
T6 construct: purchased Ambit Biosciences (KINOMEscan)
T6 sequence (Q9H093 1-628): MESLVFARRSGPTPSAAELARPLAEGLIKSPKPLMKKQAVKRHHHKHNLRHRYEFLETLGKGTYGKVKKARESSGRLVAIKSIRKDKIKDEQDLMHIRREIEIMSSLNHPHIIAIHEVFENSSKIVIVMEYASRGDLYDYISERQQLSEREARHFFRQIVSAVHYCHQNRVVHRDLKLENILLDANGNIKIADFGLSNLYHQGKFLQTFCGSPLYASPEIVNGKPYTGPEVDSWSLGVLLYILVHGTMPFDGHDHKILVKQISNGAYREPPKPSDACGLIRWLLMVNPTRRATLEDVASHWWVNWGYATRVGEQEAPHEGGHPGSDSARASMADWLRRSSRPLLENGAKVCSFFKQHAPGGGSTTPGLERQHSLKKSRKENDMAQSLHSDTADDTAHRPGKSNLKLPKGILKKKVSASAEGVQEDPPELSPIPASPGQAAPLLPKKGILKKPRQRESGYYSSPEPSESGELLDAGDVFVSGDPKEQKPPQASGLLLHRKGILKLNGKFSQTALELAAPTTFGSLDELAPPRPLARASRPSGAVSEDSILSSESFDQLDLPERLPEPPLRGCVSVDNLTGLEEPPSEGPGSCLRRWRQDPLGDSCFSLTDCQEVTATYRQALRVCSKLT
Experimental: as §1, §2

T1 sequence (P41240 whole entry): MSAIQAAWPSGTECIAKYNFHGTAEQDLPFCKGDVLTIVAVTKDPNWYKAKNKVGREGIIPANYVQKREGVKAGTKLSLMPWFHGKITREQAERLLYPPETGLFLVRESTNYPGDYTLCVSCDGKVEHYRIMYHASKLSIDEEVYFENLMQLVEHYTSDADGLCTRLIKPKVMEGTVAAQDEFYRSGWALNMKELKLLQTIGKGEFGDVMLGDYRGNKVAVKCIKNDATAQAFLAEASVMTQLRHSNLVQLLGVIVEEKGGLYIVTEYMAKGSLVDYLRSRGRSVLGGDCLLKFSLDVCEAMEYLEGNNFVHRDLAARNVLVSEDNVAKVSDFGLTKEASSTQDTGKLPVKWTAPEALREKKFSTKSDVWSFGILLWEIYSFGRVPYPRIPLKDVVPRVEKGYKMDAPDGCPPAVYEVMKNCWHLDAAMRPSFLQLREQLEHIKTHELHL

Row | Structure (SMILES) | % Competition [1] [%] | % Competition [2] [%] | inhibition at 10 µM ([3]; LATS1, 10 µM, read-out: % Competition) [%] | inhibition at 10 µM ([4]; PCTK3, 10 µM, read-out: % Competition) [%] | inhibition at 10 µM ([5]; PRKD2 (PKD2), 10 µM, read-out: % Competition) [%] | % Competition [6] [%] | inhibition at 10 µM ([3]; read-out: % Competition) [%] | inhibition at 10 µM ([4]; read-out: % Competition) [%] | inhibition at 10 µM ([5]; read-out: % Competition) [%] | Percent Competition ([1]; compound concentration 10 uM) [%] | Percent Competition ([2]; compound concentration 10 uM) [%] | inhibition at 10 µM ([3]; LATS1, compound concentration 10 uM, read-out: Percent Competition) [%] | inhibition at 10 µM ([4]; PCTK3, compound concentration 10 uM, read-out: Percent Competition) [%] | inhibition at 10 µM ([5]; PRKD2, compound concentration 10 uM, read-out: Percent Competition) [%] | Percent Competition ([6]; compound concentration 10 uM) [%]
1 | Fc1ccc(-c2c(-c3ccncc3)[nH]c3nccnc23)cc1 [Compound 122] | 71 | 100 | 68 | 77 | 98 | 89 |  |  |  |  |  |  |  |  | 
2 | CC(O)CNc1cc(-c2[nH]c3cccnc3c2-c2ccc(F)cc2)ccn1 (stereo not drawn) [Compound 140] | <50 | 100 |  |  |  | <50 | < 50 | < 50 | 99 |  |  |  |  |  | 
3 | Fc1ccc(-c2c(-c3ccncc3)[nH]c3nccnc23)cc1 [RO1155697-000-005] |  |  |  |  |  |  |  |  |  | 71 | 100 | 68 | 77 | 98 | 89

Source: article PMC3445516 (PLoS ONE, 2012)
